The source of these data is patent US7101831B2, “Compositions of material, especially lubricants and pressure transmitting means, the production and use thereof” (Fuchs Petrolub AG, priority 2000, dated 2006).

Holding throughout (type): physicochemical
One data set in a line: Pour point. From the text: (§1) Example 27 illustrates the properties of the methyl formyloxystearate and methyl [2,2-dimethylpropionyloxy]-stearate esters prepared according to examples 1 and 4 compared to pure methyl oleate (base raw material).
Data set [1] in a line: ROBOT oxidation stability test. The conditions noted are these: 35 g of lubricant; 6.25 bar of oxygen; T = 120° C., without catalyst.
Data set [2] can be described thus: Kinematic viscosity (KV) of the esters compared to methyl oleate.
Excerpt: as §1

Another data set in a line: Viscosity index (VI).
Excerpt: as §1

A further data set is described as follows: Density.
Excerpt: as §1

Turning to `CCCCCCCC/C=C\CCCCCCCC(=O)OC` [Methyl oleate, methyl oleate, reference compound], the Pour point in “Pour point” is −18 °C. For the same compound, the ROBOT in data set [1] is recorded as 10 min. In data set [2], the “KV (40° C.)” value came to 4.5 mm^2/s and the “KV (100° C.)” value worked out at 1.7 mm^2/s. The compound further gave a VI in the data set “Viscosity index (VI)” of 178.

`CCCCCCCCCC(CCCCCCCC(=O)OC)OC(=O)C(C)(C)C` (centres unmarked) [methyl 9-(10)-[2,2′-dimethylpropionyloxy]stearate] had a Pour point in the data set “Pour point” of −9 °C. This compound displayed an ROBOT in data set [1] of 27 min. Besides, in data set [2], the “KV (40° C.)” value came to 13.1 mm^2/s and the “KV (100° C.)” value worked out at 3.4 mm^2/s. Further, in the data set “Density”, the “Density (15° C.)” value is reported as 902.73 kg/m^3. Also, the VI in the data set “Viscosity index (VI)” amounted to 139.

Take “methyl 9(10)-formyloxystearate [Methyl formyloxystearate]”: the Pour point in “Pour point” is −18 °C. This compound also displayed an ROBOT in data set [1] of 165 min. In data set [2], the “KV (40° C.)” value worked out at 12.0 mm^2/s and the “KV (100° C.)” value stood at 3.1 mm^2/s. In addition, the “Density (15° C.)” value in the data set “Density” is recorded as 933.65 kg/m^3. This compound also registered a VI in “Viscosity index (VI)” of 120.
